A short description of series [1]: depolymerisation of hyaluronic acid by OH-radicals, viscosimetric. It is filed as biochemical. An excerpt: A suitable assay is the inhibition of the OH-radical-dependent degradation of the heme system of heme proteins. The […] of the Soret band of the heme group can be conveniently quantified in the 350-450 nm region. An alternative assay used was the depolymerisation of hyaluronic acid by OH-radicals The progressive depolymerisation of this mucopolysaccharide was followed viscosimetrically and should be inhibited accordingly in the presence of the prazoles. Depolymerisation of hyaluronic acid was measured in terms of viscosity change with time. Potassium hyaluronate was purchased from Sigma-Aldrich Chemie, Steinheim, Germany. All operations were performed at room temperature (22° C.). Relative viscosity was monitored by recording the time (seconds) required for a given volume (0.8 ml) of the reaction mixture to drain by gravity from the barrel of a plastic 1 ml syringe through a needle of appropriate size. The meniscus was timed as it passed between two calibration marks on the syringe barrel. […] The reaction was started with 30 μl of 50 mM ascorbic acid in presence of 10 mM phosphate buffer pH 7.2 and incubated for 5 minutes. […] When the water-soluble sodium salt of pantoprazole was examined only 2.5 μl 10 mM copper sulphate and 5 μl 50 mM ascorbic acid were needed to yield an appropriate depolymerization effect.

Series [2] can be described thus: OH-radical-dependent degradation of haeme group (Soret band at 408 nm), Cu/ascorbate Fenton reaction. It is filed as biochemical, Bovine. Conditions: for inhibition of heme degradation: aqueous assay; for inhibition of heme degradation compared to control: dissolved in DMF. The source says:
A suitable assay is the inhibition of the OH-radical-dependent degradation of the heme system of heme proteins. The […] of the Soret band of the heme group can be conveniently quantified in the 350-450 nm region. An alternative assay used was the depolymerisation of hyaluronic acid by OH-radicals The progressive depolymerisation of this mucopolysaccharide was followed viscosimetrically and should be inhibited accordingly in the presence of the prazoles. Bovine erythrocytes were haemolysed and diluted with water to give an electronic absorption at 408 nm of 1.0. The assay was performed analogous to that of the myeloperoxidase enzymatic activity test where hypochlorite is produced which is known to degrade the heme group of heme proteins. To 574 μl of aqueous haeme solution in a thermostatted cuvette 6 μl of DMF or water and 10 μl of […] aqueous copper sulphate were added for 5 minutes. The reaction was started after the addition of 10 μl 50 μM ascorbic acid and the absorption followed at 37° C. for two minutes in the control experiment. Depending on the solubility the respective inhibitor was added in a volume of 6 μl in DMF or water. The total volume was 600 μl.

Series [3] is described as follows: scavenging of hydroxyl radicals generated during a Fenton reaction (three assays). It is filed as biochemical. Here is the method: Bovine erythrocytes were haemolysed and diluted with water to give an electronic absorption at 408 nm of 1.0. The assay was performed analogous to that of the myeloperoxidase enzymatic activity test where hypochlorite is produced which is known to degrade the heme group of heme proteins. To 574 μl of aqueous haeme solution in a thermostatted cuvette 6 μl of DMF or water and 10 μl of […] aqueous copper sulphate were added for 5 minutes. The reaction was started after the addition of 10 μl 50 μM ascorbic acid and the absorption followed at 37° C. for two minutes in the control experiment. Depending on the solubility the respective inhibitor was added in a volume of 6 μl in DMF or water. The total volume was 600 μl. Depolymerisation of hyaluronic acid was measured in terms of viscosity change with time. Potassium hyaluronate was purchased from Sigma-Aldrich Chemie, Steinheim, Germany. All operations were performed at room temperature (22° C.). Relative viscosity was monitored by recording the time (seconds) required for a given volume (0.8 ml) of the reaction mixture to drain by gravity from the barrel of a plastic 1 ml syringe through a needle of appropriate size. The meniscus was timed as it passed between two calibration marks on the syringe barrel. […] The dye was measured at 532 nm.

The conditions of series [4]: after oral administration; read-out: maximal concentration (Cmax) in plasma; cited from earlier work.
Series [5] can be described thus: thiobarbituric acid assay (2-desoxy-D-ribose decomposition, Fe(II) Fenton reaction). It is filed as biochemical. Particulars: concentration dependent. An excerpt: In a third completely different method OH-radicals generated during a Fenton reaction decomposed 2-desoxy-D-ribose. This reaction was monitored by measuring the formation of malondialdehyde-like compounds known to yield coloured thiobarbituric acid adducts which were eventually recorded at 532 nm. […] This was attributed to the extraordinary stability of this compound surviving a hydroxyl radical burst A crucial question was the survival of these benzimidazoles during Fenton-type reactions. These stability measurements were conducted employing HPLC analysis allowing the detection of remaining intact primary compounds. The thiobarbituric acid assay was performed according to the method described earlier [10]300 μl 7.5 mM 2-desoxy-D-ribose were added to 1000 μl 10 mM potassium-phosphate buffer, pH 7.4 and incubated for 30 min. at 37° C. in the presence of 100 μl inhibitor compound and 100 μl 10 mM iron(II)ammonium sulphate. The total volume was 1.5 ml. The reaction was stopped by the addition of 1 ml 1% (w/v) thiobarbituric acid dissolved in 50 mM NaOH and 1 ml of 2.8% (w/v) trichloro acetic acid and maintained for 15 min at 95° C. The control reaction mixture contained the same volume of DMFas was present in the inhibitor compound. The dye was measured at 532 nm.

Series [6] is described as follows: superoxide radical scavenging system (superoxide dismutase assay using nitro tetrazolium chloride). It is filed as biochemical. The procedure: In order to examine a possible reactivity of the substituted benzimidazoles with superoxide a standard superoxide dismutase assay using nitro tetrazolium chloride was employed. Scavengeing of hydroxyl radicals was measured by three different established methods.

Series [7] in a line: stability under conditions of the Fenton reaction, HPLC analysis. Particulars: 90 min of incubation, n=3. It is filed as physicochemical. An excerpt: In a third completely different method OH-radicals generated during a Fenton reaction decomposed 2-desoxy-D-ribose. This reaction was monitored by measuring the formation of malondialdehyde-like compounds known to yield coloured thiobarbituric acid adducts which were eventually recorded at 532 nm. […] This was attributed to the extraordinary stability of this compound surviving a hydroxyl radical burst A crucial question was the survival of these benzimidazoles during Fenton-type reactions. These stability measurements were conducted employing HPLC analysis allowing the detection of remaining intact primary compounds. A 200 μl aliquot of the incubation mixture was analysed by HPLC using the analytical column Nucleosil C 8, 5 μm (125×4.6 mm, Fa. Grom, Herrenberg, Germany) and the precolumn was LiCHROPREP RP-2 (12×4 mm, Fa. Merck, Darmstadt, Germany) in a reverse phase. A gradient of acetonitrile (10-45% (v/v)) and 10 mM phosphate buffer, pH 7.4, at a flow rate of 1 ml min-1 was used as effluent on the analytical column.

With `COc1ccnc(C[S+]([O-])c2nc3ccc(OC(F)F)cc3[nH]2)c1OC` (centres unmarked) [pantoprazole sodium], in series [1] (12 μM, fully aqueous assay), the “inhibition of hyaluronic acid depolymerisation” value is 46%. This compound also came in with a biopolymer protected in series [1] (20 μM, fully aqueous assay) of 90%. The “inhibition of heme degradation” value in series [2] (25 μM) is recorded as “distinct inhibition”; in series [2] (50 μM), 34%; in series [2] (100 μM), 74%.

With `COc1ccnc(C[S+]([O-])c2nc3ccc(OC(F)F)cc3[nH]2)c1OC` (centres unmarked) [pantoprazole, 5-difluoromethoxy-2-[(3,4-dimethoxy-2-pyridinyl)methylsulphinyl]-1H-benzimidazole], the “scavenging of hydroxyl radicals” value in series [3] is “pronounced inhibitory reactivity”. In addition, the Cmax in series [4] was 5 to 10 µM. The “inhibitory effect on OH-radical decomposition of desoxyribose” value in series [5] is given as “inhibitory effect was clearly seen”. Further, the mucopolysaccharide degradation in series [1] (80 μM dissolved in DMF, within 20 min) is reported as 48%. Besides, the “inhibition of hyaluronic acid depolymerisation” value in series [1] (160 μM dissolved in DMF) is on record as “nearly complete inhibition”. For the same compound, the “reactivity in the superoxide radical scavenging system” value in series [6] is given as “did not display detectable reactivity”. Further, the “decrease of intact compound after OH-radical exposure” value in series [7] was 15%. The “inhibition of heme degradation compared to control” value is given as 36% in series [2] (50 μM) and 75% in series [2] (100 μM).

These data come from US20070027189A1, “Use of known active ingredients as radical scavengers” (Altana Pharma AG, priority 2003, published 2007).
